Reference: PMC3104124 (Journal of molecular biology, 2011)

Molecular target: T1, Ste2p (wild type, C-terminally truncated) (Saccharomyces cerevisiae, UniProt D6VTK4)
T1 sequence (D6VTK4 1-304): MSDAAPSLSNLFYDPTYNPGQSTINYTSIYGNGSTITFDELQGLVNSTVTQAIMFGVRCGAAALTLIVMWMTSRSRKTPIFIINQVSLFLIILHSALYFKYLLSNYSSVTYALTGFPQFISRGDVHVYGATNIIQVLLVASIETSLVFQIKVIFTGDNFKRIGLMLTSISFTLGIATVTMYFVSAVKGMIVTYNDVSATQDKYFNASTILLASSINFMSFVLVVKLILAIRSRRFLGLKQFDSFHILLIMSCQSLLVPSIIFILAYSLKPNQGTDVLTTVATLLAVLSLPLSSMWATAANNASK
Assay: Fluorescent ligand binding
Conditions: FL1/FL2 emission of the ligand labeled with NBD at Lys7, bound to normal Ste2p; normalised to [Lys^7(NBD),Nle^12]α-factor

Q: [des-Trp^1,Ala^3,Nle^12]α-factor was tested. Which “Relative Bmax Ratio” value did it give?
A: Its value is 0.49 ± 0.03.

Q: With [desTrp^1,desHis^2,Nle^12]α-factor as the substance, how does the “Relative Bmax Ratio” value read?
A: The value was 0.42 ± 0.05.
